Article PMC10175918 (Communications Biology, 2023)
Each block holds one molecule with its values, some of them ahead of it.

Assays:
[1] = target: T1, urotensin-II receptor (UTS2R) (Homo sapiens, UniProt Q9UKP6); test: TGFα-shedding assay, concentration-response on UTS2R (endogenous G protein), with or without urantide; type: cell-based; settings: for UTS2R activation: TGFα-shedding, screening 10 μM and response curves (Fig. 1a, Supplementary Fig. 1a)
T1 construct: expressed in transfected cells; host or cells: HEK293A
T1 sequence (Q9UKP6 1-389): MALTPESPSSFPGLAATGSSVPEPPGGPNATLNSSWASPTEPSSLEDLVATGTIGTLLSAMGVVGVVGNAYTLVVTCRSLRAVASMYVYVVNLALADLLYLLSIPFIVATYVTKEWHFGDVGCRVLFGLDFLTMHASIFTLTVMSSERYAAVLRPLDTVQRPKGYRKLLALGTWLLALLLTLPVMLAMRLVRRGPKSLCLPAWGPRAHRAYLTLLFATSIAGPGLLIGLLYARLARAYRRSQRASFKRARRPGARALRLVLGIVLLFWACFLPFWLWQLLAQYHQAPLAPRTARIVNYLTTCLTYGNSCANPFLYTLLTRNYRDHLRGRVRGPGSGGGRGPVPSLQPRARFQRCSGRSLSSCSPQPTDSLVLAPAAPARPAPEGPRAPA

[2] = target: T2, FLAG-UTS2R (urotensin-II receptor) (human) (UniProt Q9UKP6)
T2 sequence: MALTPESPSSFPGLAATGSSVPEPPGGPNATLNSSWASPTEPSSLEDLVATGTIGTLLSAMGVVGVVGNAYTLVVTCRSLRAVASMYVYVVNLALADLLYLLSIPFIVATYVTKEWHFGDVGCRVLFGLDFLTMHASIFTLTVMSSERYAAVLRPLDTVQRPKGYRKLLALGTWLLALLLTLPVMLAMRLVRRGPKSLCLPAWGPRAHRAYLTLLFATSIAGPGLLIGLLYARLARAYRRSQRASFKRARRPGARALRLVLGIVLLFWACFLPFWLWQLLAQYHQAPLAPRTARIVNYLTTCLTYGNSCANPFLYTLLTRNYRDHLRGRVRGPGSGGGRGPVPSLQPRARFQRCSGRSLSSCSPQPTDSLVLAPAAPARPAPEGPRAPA

Molecule: N#C[C@@]1(c2ccc3c(N)ncnn23)O[C@H](CO)[C@@H](O)[C@H]1O [GS-441524]
UTS2R activation [1]: no effect on UTS2R activation

Molecule: CC(C)[C@H](NC(=O)[C@@H]1CSSC[C@H](NC(=O)[C@H](CC(=O)O)NC(=O)[C@@H]2CCCN2C(=O)[C@@H](NC(=O)[C@@H](N)CCC(=O)O)[C@@H](C)O)C(=O)N[C@@H](Cc2ccccc2)C(=O)N[C@@H](Cc2c[nH]c3ccccc23)C(=O)N[C@@H](CCCCN)C(=O)N[C@@H](Cc2ccc(O)cc2)C(=O)N1)C(=O)O [UT2]
Emax ([1]; WT UTS2R, without chimeric Gα protein, read-out: Emax): 59 ± 0.7%
activation at 0.1 µM ([1]; compound concentration Log10 (M) -7, without urantide, read-out: UTS2R activation (%AP-TGFα release)): 59.6%
activation at 0.01 µM ([1]; compound concentration Log10 (M) -8, without urantide, read-out: UTS2R activation (%AP-TGFα release)): 60.1%
activation at 0.001 µM ([1]; compound concentration Log10 (M) -9, without urantide, read-out: UTS2R activation (%AP-TGFα release)): 58.8%
activation at 0.0001 µM ([1]; compound concentration Log10 (M) -10, without urantide, read-out: UTS2R activation (%AP-TGFα release)): 51.6%
activation at 10 pM ([1]; compound concentration Log10 (M) -11, without urantide, read-out: UTS2R activation (%AP-TGFα release)): 18.4%

Other lines, results leading:

UTS2R activation [1]: no effect on UTS2R activation
Molecule: C[C@H](NP(=O)(O)OC[C@H]1O[C@@](C#N)(c2ccc3c(N)ncnn23)[C@H](O)[C@@H]1O)C(=O)O [GS-704277]

TGFα-shedding assay (AP-TGFα release), untagged UTS2R in HEK293A cells: Emax of receptor activation by UT2 (%AP-TGFα release) [2]: 59
TGFα-shedding assay (AP-TGFα release), untagged UTS2R in HEK293A cells: pEC50 of receptor activation by UT2 [2]: 10.7
Molecule: ETPDCFWKYCV [urotensin-II (UT2), endogenous peptidic ligand of UTS2R]
